From PubChem BioAssay AID248 (DTP/NCI, 2004) come the findings set out here.

For this test, the system named is L1210 leukemia ip in BDF1 mice, survival T/C. The test is described as follows: NCI In Vivo Anticancer Drug Screen. Data for tumor model L1210 Leukemia (intraperitoneal) in B6D2F1 (BDF1) mice. To be noted: endpoint: mean survival time, higher = longer survival. Put shortly:
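In this screen, tumor-bearing mice given compound are compared to those given vehicle, and their survival values are reported as a treated-to-control quotient.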

The mark [1] stands for this setting: dose: 100.0 mg/kg/injection, schedule: Q04DX003 (ip), vehicle: saline.
Setting [2] is: dose: 200.0 mg/kg/injection, schedule: Q04DX003 (ip), vehicle: saline.
Where [3] appears, read: dose: 400.0 mg/kg/injection, schedule: Q04DX003 (ip), vehicle: saline.
[4] abbreviates: dose: 100.0 mg/kg/injection, schedule: Q01DX009 (ip), vehicle: Klucel (hydroxypropylcellulose) (HPC).
[5] abbreviates: dose: 200.0 mg/kg/injection, schedule: Q01DX009 (ip), vehicle: Klucel (hydroxypropylcellulose) (HPC).
[6] abbreviates: dose: 400.0 mg/kg/injection, schedule: Q01DX009 (ip), vehicle: Klucel (hydroxypropylcellulose) (HPC).
Setting [7] is: dose: 100.0 mg/kg/injection, schedule: Q01DX001 (ip), vehicle: saline.
Setting [8] is: dose: 200.0 mg/kg/injection, schedule: Q01DX001 (ip), vehicle: saline.
Setting [9] is: dose: 100.0 mg/kg/injection, schedule: Q01DX009 (ip), vehicle: saline.
Where [10] appears, read: dose: 100.0 mg/kg/injection, schedule: Q01DX001 (ip), vehicle: carboxymethylcellulose (CMC).
Setting [11] is: dose: 100.0 mg/kg/injection, schedule: Q04DX003 (ip), vehicle: Klucel (hydroxypropylcellulose) (HPC).
[12] abbreviates: dose: 200.0 mg/kg/injection, schedule: Q01DX001 (ip), vehicle: carboxymethylcellulose (CMC).
Setting [13] is: dose: 200.0 mg/kg/injection, schedule: Q04DX003 (ip), vehicle: Klucel (hydroxypropylcellulose) (HPC).
[14] abbreviates: dose: 400.0 mg/kg/injection, schedule: Q01DX001 (ip), vehicle: carboxymethylcellulose (CMC).
Setting [15] is: dose: 400.0 mg/kg/injection, schedule: Q04DX003 (ip), vehicle: Klucel (hydroxypropylcellulose) (HPC).
Setting [16] is: dose: 100.0 mg/kg/injection, schedule: Q04DX002 (ip), vehicle: Klucel (hydroxypropylcellulose) (HPC).
Setting [17] is: dose: 200.0 mg/kg/injection, schedule: Q04DX002 (ip), vehicle: Klucel (hydroxypropylcellulose) (HPC).

The structures appear in SMILES notation. Several values for one entry are separate records, joined by “and”; a condition that tells them apart may be missing. Equal entries are not always repeated. Toxic doses and inconclusive results are not listed. Square brackets hold non-standard residues; d marks the D form. Peptide text beside a SMILES is read from it. * marks the point of attachment. ξ: configuration not given here. Cbz = O=C(OCc1ccccc1)*; ξL = CC(C)CC(N)C(=O)O; OBn = c1ccc(CO*)cc1

With `O=C(O)C1CSC2(CCCCC2)N1` (stereo not given), the T/C runs as follows: under setting [1], 93 % of control; under setting [2], 98 % of control; under setting [3], 89 % of control.

Take `O=[N+]([O-])c1cccc(S(=O)(=O)Oc2ccccc2)c1`: the T/C reads like this: under setting [4], 102 % of control; under setting [5], 95 % of control; under setting [6], 101 % of control.

For the compound `O=c1cc(Cc2ccc([N+](=O)[O-])cc2)[nH]c(=O)[nH]1`, the T/C was 101 % of control (dose: 50.0 mg/kg/injection, schedule: Q01DX001 (ip), vehicle: saline); 107 % of control under setting [7]; 115 % of control under setting [8]; 115 % of control (dose: 400.0 mg/kg/injection, schedule: Q01DX001 (ip), vehicle: saline).

In the case of `N=C(N)SCc1c2ccccc2cc2ccccc12`, the T/C (dose: 88.0 mg/kg/injection, schedule: Q01DX009 (ip), vehicle: saline sonified) is 102 % of control; the T/C under setting [9] is 102 % of control; the T/C under setting [1] was 104 % of control; the T/C (dose: 132.0 mg/kg/injection, schedule: Q01DX009 (ip), vehicle: saline sonified) is 105 % of control; the T/C (dose: 200.0 mg/kg/injection, schedule: Q01DX009 (ip), vehicle: saline sonified) was 114 % of control; the T/C under setting [2] is 102 % of control. The T/C under setting [3] is 112 % of control.

On to `CC(=O)Nc1cc2c(cc1[N+](=O)[O-])-c1ccc(F)cc1C2`, for which the T/C was 104 % of control (dose: 50.0 mg/kg/injection, schedule: Q04DX003 (ip), vehicle: Klucel (hydroxypropylcellulose) (HPC)); 94 % of control under setting [10]; 96 % of control under setting [11]; 96 % of control under setting [12]; 100 % of control under setting [13]; 91 % of control under setting [14].

In the case of `O=C(Nc1ccc(C2=NCCN2)cc1)c1ccc([N+](=O)[O-])c(C(=O)Nc2ccc(C3=NCCN3)cc2)c1`, the T/C (dose: 10.0 mg/kg/injection, schedule: Q01DX Z (ip), vehicle: carboxymethylcellulose (CMC)) was 108 % of control and the T/C (dose: 19.0 mg/kg/injection, schedule: Q01DX Z (ip), vehicle: carboxymethylcellulose (CMC)) was 108 % of control.

Take `C=CC(=O)OCC(C)(C)C`: the T/C (dose: 100.0 mg/kg/injection, schedule: Q04DX002 (ip), vehicle: saline) is 100 % of control and 103 % of control; the T/C (dose: 200.0 mg/kg/injection, schedule: Q04DX002 (ip), vehicle: saline) was 100 % of control and 107 % of control; the T/C (dose: 800.0 mg/kg/injection, schedule: Q04DX002 (ip), vehicle: saline) is 97 % of control.

In the case of `O=C(Nc1ncc([N+](=O)[O-])s1)c1ccc(Cl)s1`, the T/C runs as follows: (dose: 6.25 mg/kg/injection, schedule: Q04DX002 (ip), vehicle: Klucel (hydroxypropylcellulose) (HPC)) 94 % of control; (dose: 12.5 mg/kg/injection, schedule: Q04DX002 (ip), vehicle: Klucel (hydroxypropylcellulose) (HPC)) 91 % of control; (dose: 25.0 mg/kg/injection, schedule: Q04DX002 (ip), vehicle: Klucel (hydroxypropylcellulose) (HPC)) 87 % of control.

For `C#CCC#CCCCCCC`, the T/C by setting is: (dose: 50.0 mg/kg/injection, schedule: Q01DX009 (ip), vehicle: saline with Tween-80) 95 % of control; (dose: 100.0 mg/kg/injection, schedule: Q01DX009 (ip), vehicle: saline with Tween-80) 95 % of control; (dose: 200.0 mg/kg/injection, schedule: Q01DX009 (ip), vehicle: saline with Tween-80) 95 % of control.

Consider `COc1cc(C=Nc2ccccc2C(=O)N/N=C/c2cc(OC)c(OC)c(OC)c2)cc(OC)c1OC`, for which the T/C is 97 % of control under setting [11], 100 % of control under setting [13] and 91 % of control under setting [15].

Regarding `Cc1cc(C)c(C2=C(CC(=O)O)C(=O)c3ccccc3C2=O)c(C)c1`, the T/C is, setting by setting: (dose: 100.0 mg/kg/injection, schedule: Q04DX003 (ip), vehicle: gum acacia) 92 % of control; (dose: 200.0 mg/kg/injection, schedule: Q04DX003 (ip), vehicle: gum acacia) 90 % of control; (dose: 400.0 mg/kg/injection, schedule: Q04DX003 (ip), vehicle: gum acacia) 90 % of control.

Consider `O=c1[nH]nc(SCc2ccccc2)c(=S)[nH]1`, for which the T/C (dose: 100.0 mg/kg/injection, schedule: Q01DX001 (ip), vehicle: other) is 119 % of control; the T/C (dose: 177.0 mg/kg/injection, schedule: Q01DX001 (ip), vehicle: other) is 104 % of control; the T/C (dose: 200.0 mg/kg/injection, schedule: Q01DX001 (ip), vehicle: other) is 156 % of control; the T/C (dose: 200.0 mg/kg/injection, schedule: Q01DX005 (ip), vehicle: other) was 92 % of control; the T/C (dose: 266.0 mg/kg/injection, schedule: Q01DX001 (ip), vehicle: other) was 101 % of control; the T/C (dose: 300.0 mg/kg/injection, schedule: Q01DX005 (ip), vehicle: other) was 95 % of control.

`CCc1cccc(OS(=O)(=O)c2ccc([N+](=O)[O-])cc2)c1`: the T/C is 95 % of control (dose: 25.0 mg/kg/injection, schedule: Q01DX009 (ip), vehicle: Klucel (hydroxypropylcellulose) (HPC)) and 92 % of control under setting [4].

With `C/C1=C/CCCCCC1`, the T/C is 90 % of control under setting [7]; 96 % of control under setting [9]; 96 % of control under setting [1]; 101 % of control under setting [8]; 89 % of control (dose: 200.0 mg/kg/injection, schedule: Q01DX009 (ip), vehicle: saline); 101 % of control under setting [2]. Moreover, the T/C by setting is: (dose: 400.0 mg/kg/injection, schedule: Q01DX009 (ip), vehicle: saline) 94 % of control; under setting [3], 98 % of control.

Consider `CC(C)(C)N(Cc1ccccc1)C(=O)Nc1ccccc1`, for which the T/C reads like this: under setting [4], 97 % of control; under setting [5], 110 % of control; under setting [6], 103 % of control.

`C/C=C/C=N/n1c(CCC)nc2ccccc2c1=O`: the T/C runs as follows: under setting [16], 90 % of control; under setting [17], 104 % of control.

For the compound `CC(C)CC(NC(=O)CNC(=O)CNC(=O)OCc1ccccc1)C(=O)OCc1ccccc1` (stereo not drawn) (Cbz-Gly-Gly-[ξL]-OBn), the T/C is 94 % of control under setting [11], 96 % of control under setting [13] and 100 % of control under setting [15].

For the compound `ClCCc1ccc(-n2cnc3c(Cl)ncnc32)cc1`, the T/C (dose: 50.0 mg/kg/injection, schedule: Q01DX001 (ip), vehicle: carboxymethylcellulose (CMC)) is 104 % of control; the T/C under setting [10] was 106 % of control; the T/C under setting [12] was 101 % of control; the T/C under setting [14] was 98 % of control.

Consider `CCc1ccccc1NC(=O)Nc1cc(C)on1`, for which the T/C was 103 % of control under setting [4], 110 % of control under setting [5] and 107 % of control under setting [6].

Take `Cc1cc(C)n2[nH]c(=O)cc2n1`: the T/C is 98 % of control (dose: 100.0 mg/kg/injection, schedule: Q04DX002 (ip), vehicle: saline with Tween-80); 104 % of control (dose: 200.0 mg/kg/injection, schedule: Q04DX002 (ip), vehicle: saline with Tween-80); 106 % of control (dose: 400.0 mg/kg/injection, schedule: Q04DX002 (ip), vehicle: saline with Tween-80).

Turning to `CC(C)NC(=O)CS(=O)(=O)c1ccc(N)cc1`, the T/C reads like this: (dose: 100.0 mg/kg/injection, schedule: Q04DX003 (ip), vehicle: saline with Tween-80) 97 % of control; (dose: 200.0 mg/kg/injection, schedule: Q04DX003 (ip), vehicle: saline with Tween-80) 97 % of control; (dose: 400.0 mg/kg/injection, schedule: Q04DX003 (ip), vehicle: saline with Tween-80) 95 % of control.

For `CC1(C(Cl)(Cl)Cl)C=CC(=NOCC(=O)O)C=C1` (stereo not given), the T/C runs as follows: under setting [16], 98 % of control; under setting [17], 95 % of control; (dose: 400.0 mg/kg/injection, schedule: Q04DX002 (ip), vehicle: Klucel (hydroxypropylcellulose) (HPC)) 98 % of control.
